# Data taken from ChEMBL document CHEMBL5113522, “Discovery of CH7057288 as an Orally Bioavailable, Selective, and Potent pan-TRK Inhibitor” (J Med Chem, 2022).
# Key:
# [1] = molecular target: High affinity nerve growth factor receptor (Homo sapiens, UniProt P04629); test: Inhibition of TRKA (unknown origin)
# [2] = molecular target: Vascular endothelial growth factor receptor 2 (Homo sapiens, UniProt P35968); test: Inhibition of KDR (unknown origin)
# NIH3T3 = test: Antiproliferative activity against […] NIH3T3 cells expressing MPRIP-NTRK1 assessed as cell growth inhibition incubated for 4 to 7 days by CellTiter-Glo Luminescent Cell Viability Assay; assay type: functional, cell-based; settings: Mus musculus
# CYP3A4 = CYP3A4 (Homo sapiens, UniProt P08684); test: Induction of CYP3A4 in human hepatocytes assessed as fold induction at 1 uM using testosterone as substrate preincubated with replacement of fresh medium containing compound every 24 hrs for 72 hrs followed by substrate addition and measured after 1 hr by LC-MS/MS analysis relative to control; assay type: ADME, cell-based, Hepatocyte; settings: probe testosterone, time 73 hrs, read-out: FC
# CYP3A4, sequence (P08684 whole entry): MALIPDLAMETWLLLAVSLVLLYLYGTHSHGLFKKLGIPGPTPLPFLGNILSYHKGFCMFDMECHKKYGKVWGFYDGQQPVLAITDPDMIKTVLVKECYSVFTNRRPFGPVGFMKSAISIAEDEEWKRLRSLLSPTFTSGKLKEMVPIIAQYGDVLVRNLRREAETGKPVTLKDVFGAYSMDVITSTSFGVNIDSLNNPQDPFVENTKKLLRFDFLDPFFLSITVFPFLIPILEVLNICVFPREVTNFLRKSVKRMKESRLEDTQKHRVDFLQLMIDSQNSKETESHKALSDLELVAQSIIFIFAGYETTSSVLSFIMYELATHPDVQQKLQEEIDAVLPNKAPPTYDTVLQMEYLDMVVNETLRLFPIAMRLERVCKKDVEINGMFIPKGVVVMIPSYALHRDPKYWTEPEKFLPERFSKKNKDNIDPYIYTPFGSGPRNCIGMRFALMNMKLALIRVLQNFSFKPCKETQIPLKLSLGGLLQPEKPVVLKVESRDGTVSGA
# [3] = molecular target: Tyrosine-protein kinase Lck (Homo sapiens, UniProt P06239); test: Inhibition of LCK (unknown origin)
# Tyrosine-protein kinase Lck, sequence (P06239 whole entry): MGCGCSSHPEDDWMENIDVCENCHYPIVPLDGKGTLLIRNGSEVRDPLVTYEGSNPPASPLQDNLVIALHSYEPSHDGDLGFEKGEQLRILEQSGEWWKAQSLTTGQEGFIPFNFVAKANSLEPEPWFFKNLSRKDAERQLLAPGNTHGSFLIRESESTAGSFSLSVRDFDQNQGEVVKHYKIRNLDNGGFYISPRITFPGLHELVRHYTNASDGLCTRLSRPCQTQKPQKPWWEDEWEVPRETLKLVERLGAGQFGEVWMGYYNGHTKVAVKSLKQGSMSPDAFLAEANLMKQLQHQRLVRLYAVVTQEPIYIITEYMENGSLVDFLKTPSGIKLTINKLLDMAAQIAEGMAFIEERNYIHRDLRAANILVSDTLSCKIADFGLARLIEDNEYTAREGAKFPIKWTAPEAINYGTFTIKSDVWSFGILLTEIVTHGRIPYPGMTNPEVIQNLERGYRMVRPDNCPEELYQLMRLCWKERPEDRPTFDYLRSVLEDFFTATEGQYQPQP
# [4] = molecular target: Protein kinase C alpha type (Homo sapiens, UniProt P17252); test: Inhibition of PKCalpha (unknown origin)
# [5] = molecular target: ALK tyrosine kinase receptor (Homo sapiens, UniProt Q9UM73); test: Inhibition of ALK (unknown origin)
# [6] = molecular target: RAC-alpha serine/threonine-protein kinase (Homo sapiens, UniProt P31749); test: Inhibition of AKT1 (unknown origin)
# RAC-alpha serine/threonine-protein kinase, sequence (P31749 whole entry): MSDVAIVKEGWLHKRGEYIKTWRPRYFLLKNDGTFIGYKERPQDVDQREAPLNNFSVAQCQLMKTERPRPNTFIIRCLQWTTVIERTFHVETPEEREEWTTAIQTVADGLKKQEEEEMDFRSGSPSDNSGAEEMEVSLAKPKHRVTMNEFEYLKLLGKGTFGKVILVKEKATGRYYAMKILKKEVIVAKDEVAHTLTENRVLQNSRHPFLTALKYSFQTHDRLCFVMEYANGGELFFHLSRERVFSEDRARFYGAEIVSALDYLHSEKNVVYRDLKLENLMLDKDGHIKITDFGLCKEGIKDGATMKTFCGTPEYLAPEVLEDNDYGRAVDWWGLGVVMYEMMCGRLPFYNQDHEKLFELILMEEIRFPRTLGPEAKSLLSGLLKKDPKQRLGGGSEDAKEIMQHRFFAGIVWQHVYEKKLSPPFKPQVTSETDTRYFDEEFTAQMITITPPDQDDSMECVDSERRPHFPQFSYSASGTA
# [7] = molecular target: Tyrosine-protein kinase JAK2 (Homo sapiens, UniProt O60674); test: Inhibition of JAK2 (unknown origin)
# [8] = molecular target: NT-3 growth factor receptor (Homo sapiens, UniProt Q16288); test: Inhibition of TRKC (unknown origin)
# [9] = molecular target: Cyclin-dependent kinase 1 (Homo sapiens, UniProt P06493); test: Inhibition of CDK1 (unknown origin)
# [10] = molecular target: Hepatocyte growth factor receptor (Homo sapiens, UniProt P08581); test: Inhibition of MET (unknown origin)
# [11] = molecular target: Epidermal growth factor receptor (Homo sapiens, UniProt P00533); test: Inhibition of EGFR (unknown origin)
# Epidermal growth factor receptor, sequence (P00533 whole entry): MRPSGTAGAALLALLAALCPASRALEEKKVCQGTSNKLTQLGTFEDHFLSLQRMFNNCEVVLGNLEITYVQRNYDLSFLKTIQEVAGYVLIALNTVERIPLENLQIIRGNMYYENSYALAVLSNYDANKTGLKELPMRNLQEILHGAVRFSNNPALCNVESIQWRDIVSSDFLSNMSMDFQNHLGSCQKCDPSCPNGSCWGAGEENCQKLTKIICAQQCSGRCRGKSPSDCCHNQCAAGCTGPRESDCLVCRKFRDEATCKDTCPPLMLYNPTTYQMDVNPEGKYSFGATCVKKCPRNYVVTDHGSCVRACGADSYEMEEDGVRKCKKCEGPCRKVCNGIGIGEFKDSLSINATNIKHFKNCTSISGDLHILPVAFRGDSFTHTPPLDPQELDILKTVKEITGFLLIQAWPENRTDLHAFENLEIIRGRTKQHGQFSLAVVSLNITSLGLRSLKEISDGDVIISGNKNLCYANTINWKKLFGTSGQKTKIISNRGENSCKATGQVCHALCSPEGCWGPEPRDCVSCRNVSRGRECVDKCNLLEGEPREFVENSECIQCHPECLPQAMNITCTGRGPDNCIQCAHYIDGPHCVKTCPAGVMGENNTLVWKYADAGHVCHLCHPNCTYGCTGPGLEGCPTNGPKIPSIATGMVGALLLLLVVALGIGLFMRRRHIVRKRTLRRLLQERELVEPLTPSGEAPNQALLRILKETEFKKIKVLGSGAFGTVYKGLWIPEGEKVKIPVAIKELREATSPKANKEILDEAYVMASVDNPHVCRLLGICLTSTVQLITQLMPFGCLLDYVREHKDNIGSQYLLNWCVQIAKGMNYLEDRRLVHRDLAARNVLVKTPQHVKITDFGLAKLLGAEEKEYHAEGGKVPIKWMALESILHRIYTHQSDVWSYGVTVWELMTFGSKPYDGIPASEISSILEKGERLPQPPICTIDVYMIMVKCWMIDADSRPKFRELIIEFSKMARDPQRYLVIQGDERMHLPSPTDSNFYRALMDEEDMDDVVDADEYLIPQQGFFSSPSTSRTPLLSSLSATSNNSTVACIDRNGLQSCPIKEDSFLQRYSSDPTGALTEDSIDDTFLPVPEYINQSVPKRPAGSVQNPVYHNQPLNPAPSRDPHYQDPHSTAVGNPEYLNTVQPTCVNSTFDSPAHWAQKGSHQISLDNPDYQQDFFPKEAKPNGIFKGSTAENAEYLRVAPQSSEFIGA
# [12] = molecular target: Serine/threonine-protein kinase Chk1 (Homo sapiens, UniProt O14757); test: Inhibition of CHK1 (unknown origin)
# [13] = molecular target: RAF proto-oncogene serine/threonine-protein kinase (Homo sapiens, UniProt P04049); test: Inhibition of RAF1 (unknown origin)
# [14] = molecular target: Receptor tyrosine-protein kinase erbB-2 (Homo sapiens, UniProt P04626); test: Inhibition of HER2 (unknown origin)
# [15] = molecular target: BDNF/NT-3 growth factors receptor (Homo sapiens, UniProt Q16620); test: Inhibition of TRKB (unknown origin)
# [16] = molecular target: Proto-oncogene tyrosine-protein kinase Src (Homo sapiens, UniProt P12931); test: Inhibition of Src (unknown origin)
# [17] = molecular target: cAMP-dependent protein kinase (PKA) (Homo sapiens, UniProt P22694+P17612+P22612); test: Inhibition of PKA (unknown origin); assay type: protein assay
# Insulin receptor = Insulin receptor (Homo sapiens, UniProt P06213); test: Inhibition of INSR (unknown origin)
# [18] = molecular target: Fibroblast growth factor receptor 2 (Homo sapiens, UniProt P21802); test: Inhibition of FGFR2 (unknown origin)
# Vascular endothelial growth factor receptor 2, sequence (P35968 whole entry): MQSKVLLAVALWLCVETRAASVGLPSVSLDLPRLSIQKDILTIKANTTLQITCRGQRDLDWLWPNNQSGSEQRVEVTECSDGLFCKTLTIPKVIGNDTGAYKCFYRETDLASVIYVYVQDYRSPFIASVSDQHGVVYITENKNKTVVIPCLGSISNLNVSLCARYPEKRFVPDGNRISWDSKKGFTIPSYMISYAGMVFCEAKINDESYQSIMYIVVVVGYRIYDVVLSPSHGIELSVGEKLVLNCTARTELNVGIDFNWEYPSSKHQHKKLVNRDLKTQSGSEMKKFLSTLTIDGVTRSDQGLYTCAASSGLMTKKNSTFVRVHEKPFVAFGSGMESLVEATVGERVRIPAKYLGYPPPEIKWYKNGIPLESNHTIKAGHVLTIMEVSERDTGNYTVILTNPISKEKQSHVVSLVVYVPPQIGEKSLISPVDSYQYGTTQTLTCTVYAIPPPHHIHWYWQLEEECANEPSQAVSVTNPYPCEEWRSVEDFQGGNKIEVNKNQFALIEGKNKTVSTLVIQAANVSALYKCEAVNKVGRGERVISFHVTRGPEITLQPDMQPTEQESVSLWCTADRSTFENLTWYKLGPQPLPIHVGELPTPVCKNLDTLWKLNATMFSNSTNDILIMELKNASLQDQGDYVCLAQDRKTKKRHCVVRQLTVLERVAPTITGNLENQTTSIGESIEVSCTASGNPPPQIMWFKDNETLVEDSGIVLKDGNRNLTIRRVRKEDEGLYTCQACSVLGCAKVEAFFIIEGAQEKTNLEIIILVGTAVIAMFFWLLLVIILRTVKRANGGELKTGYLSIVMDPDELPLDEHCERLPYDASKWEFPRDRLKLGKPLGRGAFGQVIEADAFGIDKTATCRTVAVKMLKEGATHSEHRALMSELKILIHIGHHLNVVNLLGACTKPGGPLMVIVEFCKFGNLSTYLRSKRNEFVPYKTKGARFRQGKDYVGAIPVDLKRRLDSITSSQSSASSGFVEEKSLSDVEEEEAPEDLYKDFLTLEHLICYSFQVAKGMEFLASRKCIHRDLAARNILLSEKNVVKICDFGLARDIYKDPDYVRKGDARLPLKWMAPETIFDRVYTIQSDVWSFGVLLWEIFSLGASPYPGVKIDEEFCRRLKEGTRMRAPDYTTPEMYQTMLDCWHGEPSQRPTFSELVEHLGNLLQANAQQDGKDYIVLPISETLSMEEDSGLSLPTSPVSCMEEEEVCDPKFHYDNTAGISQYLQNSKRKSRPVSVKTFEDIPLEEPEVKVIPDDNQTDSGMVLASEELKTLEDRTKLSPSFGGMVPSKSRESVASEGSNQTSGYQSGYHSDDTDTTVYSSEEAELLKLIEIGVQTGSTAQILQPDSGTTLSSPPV
# High affinity nerve growth factor receptor, sequence (P04629 whole entry): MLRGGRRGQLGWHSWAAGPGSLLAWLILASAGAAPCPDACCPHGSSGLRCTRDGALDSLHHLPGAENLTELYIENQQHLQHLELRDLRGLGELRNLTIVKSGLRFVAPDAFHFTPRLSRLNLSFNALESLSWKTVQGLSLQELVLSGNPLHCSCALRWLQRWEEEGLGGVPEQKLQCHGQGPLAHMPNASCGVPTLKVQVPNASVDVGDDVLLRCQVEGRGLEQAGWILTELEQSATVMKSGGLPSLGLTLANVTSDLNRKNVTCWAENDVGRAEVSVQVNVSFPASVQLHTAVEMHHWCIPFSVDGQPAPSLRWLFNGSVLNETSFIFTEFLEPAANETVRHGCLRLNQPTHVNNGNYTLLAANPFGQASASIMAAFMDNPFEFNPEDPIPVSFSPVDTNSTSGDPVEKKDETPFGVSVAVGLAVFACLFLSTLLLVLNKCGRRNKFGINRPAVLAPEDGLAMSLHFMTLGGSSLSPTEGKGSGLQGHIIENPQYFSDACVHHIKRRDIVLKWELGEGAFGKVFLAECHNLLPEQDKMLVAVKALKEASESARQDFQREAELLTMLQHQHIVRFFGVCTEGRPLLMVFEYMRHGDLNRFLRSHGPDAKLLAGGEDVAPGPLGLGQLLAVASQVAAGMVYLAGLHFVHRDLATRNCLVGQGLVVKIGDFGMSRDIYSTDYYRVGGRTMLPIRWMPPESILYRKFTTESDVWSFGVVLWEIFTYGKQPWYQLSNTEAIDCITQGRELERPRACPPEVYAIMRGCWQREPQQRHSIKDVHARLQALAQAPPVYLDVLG
Compound,IC50 [1],IC50 [2],IC50 (NIH3T3),"fold induction at 1 h, 1 µM (CYP3A4)",IC50 [3],also measured
CC1(C)c2cc(N3CC4(COC4)C3)ccc2C(=O)c2c1oc1cc(C#Cc3cc(OCC4CC4)ccn3)ccc21,0.003 µM,0.43 µM,0.069 µM,2.6,0.086 µM,–
CC1(C)c2cc(OCCN3CCCOCC3)ccc2C(=O)c2c1oc1cc(C#Cc3cc(OCC4CC4)ccn3)ccc21,0.0028 µM,0.96 µM,0.08 µM,6.1,0.096 µM,–
CCCc1cc(C(=O)NC(C)(C)C)cc(C#Cc2ccc3c4c(oc3c2)C(C)(C)c2cc(NS(C)(=O)=O)ccc2C4=O)n1,0.0012 µM,> 1 µM,0.012 µM,0.9,0.096 µM,–
CC1(C)c2cc(OCCN3CCOCC3)ccc2C(=O)c2c1oc1cc(C#Cc3cc(OCC(F)(F)F)ccn3)ccc21,0.0033 µM,> 1 µM,0.021 µM,6.3,0.33 µM,–
CC(C)(C)NC(=O)c1ccnc(C#Cc2ccc3c4c(oc3c2)C(C)(C)c2cc(NS(C)(=O)=O)ccc2C4=O)c1,0.0007 µM,0.6 µM,0.014 µM,4.7,0.13 µM,–
CC1(C)c2cc(OCCN3CCOCC3)ccc2C(=O)c2c1oc1cc(C#Cc3cc(OCC4(CO)CC4)ccn3)ccc21,0.0033 µM,0.96 µM,0.184 µM,7.9,0.37 µM,–
CC(C)(C)NC(=O)c1cc(C#N)nc(C#Cc2ccc3c4c(oc3c2)C(C)(C)c2cc(NS(C)(=O)=O)ccc2C4=O)c1,0.0028 µM,> 1 µM,0.067 µM,11,0.058 µM,–
Cc1cnc(C#Cc2ccc3c4c(oc3c2)C(C)(C)c2cc(NS(C)(=O)=O)ccc2C4=O)cc1C(=O)NC(C)(C)C,0.0038 µM,> 1 µM,0.065 µM,2.6,0.76 µM,–
CCc1cc(C(=O)NC(C)(C)C)cc(C#Cc2ccc3c4c(oc3c2)C(C)(C)c2cc(NS(C)(=O)=O)ccc2C4=O)n1,0.0007 µM,> 1 µM,0.012 µM,2.8,0.32 µM,–
CC(C)(C)NC(=O)c1cc(C#Cc2ccc3c4c(oc3c2)C(C)(C)c2cc(NS(C)(=O)=O)ccc2C4=O)nc(C(F)(F)F)c1,0.0026 µM,> 1 µM,0.055 µM,2.5,0.13 µM,–
CC1(C)c2cc(OCCN3C4CCC3COC4)ccc2C(=O)c2c1oc1cc(C#Cc3cc(OCC4CC4)ccn3)ccc21,0.018 µM,> 1 µM,0.18 µM,6.7,0.17 µM,–
CC1(C)c2cc(OCCN3CCOCC3)ccc2C(=O)c2c1oc1cc(C#Cc3cc(C(=O)NC4CC4)ccn3)ccc21,0.0013 µM,> 1 µM,0.03 µM,12,0.18 µM,–
CC1(C)c2cc(OCCN3CCOCC3)ccc2C(=O)c2c1oc1cc(C#Cc3cc(OCC4CC4)ccn3)ccc21,0.0045 µM,0.757 µM,–,6.5,–,IC50 [4]: > 10 µM; IC50 [5]: 2.8 µM; IC50 [6]: > 10 µM; IC50 [7]: > 10 µM; IC50 [8]: 0.0069 µM; IC50 [9]: > 10 µM; IC50 [10]: > 10 µM; IC50 [11]: > 10 µM; IC50 [12]: > 10 µM; IC50 [13]: > 10 µM; IC50 [14]: > 10 µM; IC50 [15]: 0.0081 µM; IC50 [16]: 2 µM; IC50 [17]: > 10 µM; IC50 (Insulin receptor): > 10 µM; IC50 [18]: > 10 µM
CC1(C)NC(=O)N(CCOc2ccc3c(c2)C(C)(C)c2oc4cc(C#Cc5cc(OCC6CC6)ccn5)ccc4c2C3=O)C1=O,0.013 µM,> 1 µM,0.15 µM,1.9,0.14 µM,–
CC1(C)c2cc(N3CCNC(=O)C3)ccc2C(=O)c2c1oc1cc(C#Cc3cc(OCC4CC4)ccn3)ccc21,0.0014 µM,0.29 µM,0.016 µM,4.2,0.05 µM,–
CC1(C)c2cc(OCCN3CCOCC3)ccc2C(=O)c2c1oc1cc(C#Cc3cc(OCCC4CC4)ccn3)ccc21,0.002 µM,0.49 µM,0.53 µM,6.4,0.22 µM,–
CC1(C)c2cc(OCCN3CCOCC3)ccc2C(=O)c2c1oc1cc(C#Cc3cc(OCC4CCC4)ccn3)ccc21,0.0027 µM,0.171 µM,0.21 µM,3.1,0.053 µM,–
CC1(COc2ccnc(C#Cc3ccc4c5c(oc4c3)C(C)(C)c3cc(OCCN4CCOCC4)ccc3C5=O)c2)CC1,0.002 µM,0.42 µM,0.073 µM,6.1,0.16 µM,–
CC1(C)c2cc(OCCN3CC4(COC4)C3)ccc2C(=O)c2c1oc1cc(C#Cc3cc(OCC4CC4)ccn3)ccc21,0.004 µM,0.5 µM,0.046 µM,1.4,0.022 µM,–
CC(C)(C)NC(=O)c1cc(Cl)nc(C#Cc2ccc3c4c(oc3c2)C(C)(C)c2cc(NS(C)(=O)=O)ccc2C4=O)c1,0.0022 µM,> 1 µM,0.048 µM,3,0.18 µM,–
CC1(C)c2cc(N3CCOCC3)ccc2C(=O)c2c1oc1cc(C#Cc3cc(OCC4CC4)ccn3)ccc21,0.0034 µM,0.69 µM,0.053 µM,5.4,0.19 µM,–
CC1(C)c2cc(NS(C)(=O)=O)ccc2C(=O)c2c1oc1cc(C#Cc3cc(OCC4CC4)ccn3)ccc21,0.0039 µM,> 1 µM,0.075 µM,1.2,0.223 µM,–
CC1(C)c2cc(OCCN3CCNC(=O)C3)ccc2C(=O)c2c1oc1cc(C#Cc3cc(OCC4CC4)ccn3)ccc21,0.0021 µM,0.413 µM,0.019 µM,5.2,0.068 µM,–
CC1(C)c2cc(NS(C)(=O)=O)ccc2C(=O)c2c1oc1cc(C#Cc3cc(C(=O)NC4CC4)ccn3)ccc21,0.0024 µM,> 1 µM,0.083 µM,2.8,0.145 µM,–
COCCOc1ccnc(C#Cc2ccc3c4c(oc3c2)C(C)(C)c2cc(OCCN3CCOCC3)ccc2C4=O)c1,0.015 µM,> 1 µM,0.13 µM,6.3,0.82 µM,–
Cc1c(C(=O)NC(C)(C)C)ccnc1C#Cc1ccc2c3c(oc2c1)C(C)(C)c1cc(NS(C)(=O)=O)ccc1C3=O,0.0038 µM,> 1 µM,0.045 µM,4.1,0.3 µM,–
CC1(C)c2cc(OCCN3CCOCC3)ccc2C(=O)c2c1oc1cc(C#Cc3cncc(OCC4CC4)c3)ccc21,0.16 µM,–,–,–,–,–
CC1(C)c2cc(NS(C)(=O)=O)ccc2C(=O)c2c1oc1cc(C#Cc3cc(OCC(F)(F)F)ccn3)ccc21,0.0022 µM,0.997 µM,0.067 µM,3.4,0.159 µM,–
